In US20240190855A1 (Relay Therapeutics, Inc., priority 2021, published 2024):

Experiments:
CDK2/Cyclin E complex = target: T1, CDK2/Cyclin E complex (Homo sapiens, UniProt P24941); test: CDK2/Cyclin E fluorescence-based microfluidic mobility shift assay (CDK2 Biochemical Caliper Assay); details: read-out: Biochemical CDK2/CyclinE Caliper IC50
T1 construct: purchased Eurofins 14-475
Outline: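 Microfluidic mobility-shift readout after EDTA termination measured phosphorylation of fluorescent FL Peptide 18 (1.5 uM final) in a 20 hr room-temperature reaction. Compounds were tested at 11 concentrations (3-fold).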

[1] = target: target tagged with nanoLuciferase in 293-NB2 cells (Homo sapiens, UniProt P24941); test: nanoBRET TE Intracellular Kinase Assay (Cell nanoBRET Assay); assay type: cell-based
Method: Compounds described herein were also tested in a nanoBRET TE Intracellular Kinase Assay. Test compounds were prepared in a DMSO stock solution. 45 uL of stock solution was transferred to a 384 well plate (Greiner, 781201), and a 3-fold 11-point dilution was performed. 293-NB2 cells expressing target tagged with nanoLuciferase were diluted in cell growth media (DMEM+10% FBS+1% Pen/Strep media) and a 40 uL cell solution of 7.5E4 cells/mL was seeded in a separate 384 well cell culture plate and incubated overnight at 37° C./5% CO2/100% humidity. […] 80 nL of each concentration of compound was transferred from the compound plate to a corresponding well in the cell culture plate by Echo550 liquid handler. The plates were incubated for 2 hrs at 37° C./5% CO2/100% humidity. […] Chemiluminescence was then read on an EnVision reader (PerkinElmer).

Row | SMILES | IC50 (CDK2/Cyclin E complex) [nM] | IC50 [1] [nM]
1 | Cc1cc(CC(=O)Nc2cc([C@@H]3CCC[C@H](OC(=O)NC4(C)CC4)CC3)[nH]n2)on1 (single isomer, unassigned) [Example 24] | 100 to 250 | 250 to 1000
2 | Cc1cc(CC(=O)Nc2ncn([C@@H]3CC[C@H](OC(=O)NC4(C)CC4)C3)n2)on1 (single isomer, unassigned) [Example 40] | 1000 to 100000 | 1000 to 100000
3 | C=C(C)c1ccncc1O[C@@H]1CC[C@H](c2cc(NC(=O)Cc3cc(C)no3)n[nH]2)C1 (single isomer, unassigned) [Example 57] | ≤ 100 | ≤ 100
4 | C=C(C)c1ccncc1O[C@H]1CC[C@@H](c2cc(NC(=O)Cc3cc(C)no3)n[nH]2)C1 (single isomer, unassigned) [Example 58] | ≤ 100 | ≤ 100
5 | CC(C)NC(=O)O[C@@H]1CC[C@H](c2cc(NC(=O)c3ccnn3C)n[nH]2)C1 [Example 5] | ≤ 100 | ≤ 100
6 | CC(C)NC(=O)O[C@H]1CC[C@@H](c2cc(NC(=O)c3ccnn3C)n[nH]2)C1 [Example 6] | ≤ 100 | 100 to 250
7 | CC1(NC(=O)O[C@@H]2CC[C@H](c3cc(NC(=O)Cc4ccccc4)n[nH]3)C2)CC1 [Example 7] | ≤ 100 | ≤ 100
8 | COCc1cc(C(=O)Nc2cc([C@@H]3CC[C@H](OC(=O)N(C)C(C)C)C3)[nH]n2)n(C)n1 [Example 8] | ≤ 100 | 100 to 250
9 | CC1(NC(=O)O[C@H]2CC[C@@H](c3cc(NC(=O)Cc4ccccc4)n[nH]3)C2)CC1 [Example 9] | ≤ 100 | ≤ 100
10 | CC(C)NC(=O)O[C@@H]1CC[C@H](c2cc(NC(=O)Cc3ccccc3)n[nH]2)C1 [Example 12] | ≤ 100 | 100 to 250
11 | CC(C)NC(=O)O[C@@H]1CC[C@H](c2cc(NC(=O)c3ccnc4ncsc34)n[nH]2)C1 [Example 13] | ≤ 100 | ≤ 100
12 | CC(C)NC(=O)O[C@@H]1CC[C@H](c2cc(NC(=O)Cc3ccccc3S(C)(=O)=O)n[nH]2)C1 [Example 14] | ≤ 100 | 100 to 250
13 | Cc1cc(C(=O)Nc2cc([C@H]3CC[C@@H](OC(=O)NC(C)C)C3)[nH]n2)on1 [Example 17] | ≤ 100 | 1000 to 100000
14 | CC(C)NC(=O)O[C@@H]1CC[C@H](c2cc(NC(=O)Cc3ccnn3C)n[nH]2)C1 [Example 18] | ≤ 100 | 250 to 1000
15 | CC(C)NC(=O)O[C@@H]1CC[C@H](c2cc(NC(=O)c3c[n+](C(C)(C)C)nn3C)n[nH]2)C1 [Example 19] | 250 to 1000 | 1000 to 100000
16 | CC(C)NC(=O)O[C@@H]1CC[C@H](c2cc(NC(=O)Cn3nnc4ccccc4c3=O)n[nH]2)C1 [Example 41] | ≤ 100 | 1000 to 100000
17 | CC(C)NC(=O)O[C@@H]1CC[C@H](c2cc(NC(=O)Cc3cnc4ncnn4c3)n[nH]2)C1 [Example 107] | 250 to 1000 | 1000 to 100000
18 | Cc1cc(CC(=O)Nc2cc([C@H]3C[C@@H](OC(=O)NC(C)C)C3)[nH]n2)on1 [Example 110] | ≤ 100 | 1000 to 100000
19 | Cc1cc(CC(=O)Nc2cc([C@H]3CC[C@@H](OC(=O)NC(C)C)CC3)[nH]n2)on1 [Example 116] | ≤ 100 | 250 to 1000

Results, then the compound that gave them:

Row | IC50 (CDK2/Cyclin E complex) [nM] | IC50 [1] [nM] | SMILES
20 | 250 to 1000 | 1000 to 100000 | Cc1cc(CC(=O)Nc2cc([C@H]3CC[C@@H](OC(N)=O)C3)[nH]n2)on1 (racemic) [Example 4]
21 | 1000 to 100000 | 1000 to 100000 | Cc1cc(CC(=O)Nc2cc([C@H]3CC[C@@H](CC(=O)NC4(C)CC4)C3)[nH]n2)on1 (single isomer, unassigned) [Example 28]
22 | 1000 to 100000 | 1000 to 100000 | Cc1cc(CC(=O)Nc2cc([C@@H]3CC[C@@H](CC(=O)NC4(C)CC4)C3)[nH]n2)on1 (single isomer, unassigned) [Example 31]
23 | 1000 to 100000 | 1000 to 100000 | Cc1cc(CC(=O)Nc2cc([C@H]3CC[C@@H](NC(=O)NC(C)C)C3)[nH]n2)on1 (single isomer, unassigned) [Example 83]
24 | ≤ 100 | 1000 to 100000 | Cc1cc(CC(=O)Nc2cc([C@H]3CC[C@@H](N4CC(C)(C)NC4=O)C3)[nH]n2)on1 (single isomer, unassigned) [Example 91]
25 | 1000 to 100000 | 1000 to 100000 | Cc1cc(CC(=O)Nc2cc([C@@H]3CC[C@H](NC(=O)NC(C)C)C3)[nH]n2)on1 (single isomer, unassigned) [Example 102]
26 | ≤ 100 | 1000 to 100000 | Cc1cc(CC(=O)Nc2cc([C@H]3CC[C@@H](N4CC(C)(C)NC4=O)C3)[nH]n2)on1 (single isomer, unassigned) [Example 117]
27 | ≤ 100 | 250 to 1000 | Cc1cc(CC(=O)Nc2cc([C@H]3CC[C@@H](Oc4nnccc4C)C3)[nH]n2)on1 (single isomer, unassigned) [Example 119]
28 | 100 to 250 | 1000 to 100000 | Cc1cc(CC(=O)Nc2cc([C@H]3CC[C@@H](OC(=O)NCCC(C)(C)O)C3)[nH]n2)on1 [Example 23]
29 | 100 to 250 | 1000 to 100000 | CNC(=O)O[C@@H]1CC[C@H](c2cc(NC(=O)Cc3cc(C)no3)n[nH]2)C1 [Example 42]
30 | 1000 to 100000 | 1000 to 100000 | Cc1cc(CC(=O)Nc2cc([C@H]3CC[C@@H](C(=O)NC(C)C)CC3)[nH]n2)on1 [Example 55]
31 | 1000 to 100000 | 1000 to 100000 | Cc1cc(CC(=O)Nc2cc([C@H]3CC[C@H](C(=O)NC(C)C)CC3)[nH]n2)on1 [Example 56]
32 | 100 to 250 | 1000 to 100000 | CCC(=O)O[C@@H]1CC[C@H](c2cc(NC(=O)Cc3cc(C)no3)n[nH]2)C1 [Example 115]
